According to patent publication US8278262B2, “Use of microproteins as tryptase inhibitors” (BioNTech AG, priority 2004, dated 2012):
Read-outs that look alike come from different tables or passages of the source. Bridge positions count the residues as written; N and C are the ends. Peptide text beside a SMILES is read from it.

How the values were obtained:
[1] = biological target: β3-Tryptase (Homo sapiens, UniProt P20231); experiment: Kiapp determination with tryptase (Example 3); format: biochemical
Protocol: (§1) Tryptase (0.2 nM) was preincubated with McoTi-KVV (0-34 nM) at 37 degree C. for 60 min, and the reaction was initiated by the addition of substrate tos-Gly-Pro-Arg-AMC. The residual steady state velocities were measured over 10 min and are expressed in % of the activity measured in the absence of the inhibitor.
as §1, with “MCoEeTI (0-1950” for “McoTi-KVV (0-34”

[2] = biological target: T1, bovine trypsin (Bos taurus, UniProt P00760); experiment: Trypsin inhibition with substrate Boc-Leu-Gly-Arg-pNA (Example 4); format: biochemical; conditions: as barnase′ fusion proteins
T1 construct: purchased Serva
T1 sequence (P00760 24-246): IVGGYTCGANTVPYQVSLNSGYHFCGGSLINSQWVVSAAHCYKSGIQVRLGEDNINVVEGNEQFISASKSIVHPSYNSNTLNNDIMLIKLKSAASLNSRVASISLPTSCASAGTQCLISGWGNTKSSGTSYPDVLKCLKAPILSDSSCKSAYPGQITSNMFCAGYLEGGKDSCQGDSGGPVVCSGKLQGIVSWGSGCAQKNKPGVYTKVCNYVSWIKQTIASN
Protocol: The inhibitory activity of the protein variants was measured according to van Nostrand et al. (1990) and Sinha et al. (1991). The remaining activity of bovine trypsin (Serva) was determined after incubation with the respective inhibitor for 10 min at 37° C. by monitoring hydrolysis of the chromogenic substrate Boc-Leu-Gly-Arg-pNA (Bachem, solubilized in Me2SO) at 405 nm. Assays were performed in a final volume of 100 μl in 50 mM Tris-HCl, pH 7.5, 150 mM NaCl, 5 mM CaCl2 at 37° C. containing 5 nM of trypsin, […] and varying amounts of inhibitor (10^−10-10^−6 M). For calculation of Kiapp-values, vmax values were determined and the curve fitting tool of SigmaPlot (Jandel Scientific) was applied on the basis of the following formula, that describes the case of competitive tight binding inhibitors (Morrison, 1969):
[formula] vi=vmax value of inhibited reaction v0=vmax value of uninhibited reaction [Et]=total enzyme concentration (free and in complex) [It]=total inhibitor concentration (free and in complex) Kiapp=apparent dissociation constant of the enzyme-inhibitor complex. Results and Discussion Choice of Carrier Protein and Production Strategy

[3] = biological target: Plasmin (Homo sapiens, UniProt P00747); experiment: biochemical
[4] = biological target: hK3 (Homo sapiens, UniProt P07288); experiment: biochemical
[5] = biological target: pK1; experiment: Protease selectivity, Kiapp; format: biochemical; conditions: Human
[6] = biological target: Faktor XA (Homo sapiens, UniProt P00742); experiment: biochemical
[7] = biological target: Cathepsin G (Homo sapiens, UniProt P08311); experiment: biochemical
[8] = biological target: tPA (Homo sapiens, UniProt P00750); experiment: biochemical
[9] = biological target: Tryptase β-Ia (Homo sapiens, UniProt Q15661); experiment: biochemical
[10] = biological target: Elastase (Pankreas proteases) (Sus scrofa, UniProt P00772); experiment: biochemical
[11] = biological target: Chymotrypsin; experiment: Protease selectivity, Kiapp; format: biochemical; conditions: Porcine
[12] = biological target: Thrombin (Homo sapiens, UniProt P00734); experiment: biochemical
[13] = biological target: Tryptase ST2 (Ovis aries, UniProt Q9XSM2); experiment: biochemical
[14] = biological target: Tryptase β-II (Homo sapiens, UniProt P20231); experiment: biochemical
[15] = biological target: Trypsin (Sus scrofa, UniProt P00761); experiment: biochemical
[16] = biological target: Elastase (Neutrophiles) (Homo sapiens, UniProt P08246); experiment: biochemical
[17] = biological target: tetrameric tryptase (Homo sapiens, UniProt P20231); conditions: cited from earlier work
[18] = biological target: T2, Trypsin (Bos taurus, UniProt P00760); experiment: Kiapp determination with trypsin (Example 3); format: biochemical, bovine
T2 sequence (P00760 24-246): T1 sequence (P00760 24-246)
Excerpt: Therefore, bovine pancreatic trypsin was standardised by active-site titration using p-Nitrophenyl p′-guanidinobenzoate (Chase & Shaw, 1970).

CC[C@H](C)[C@@H]1NC(=O)[C@H](CCCCN)NC(=O)[C@@H]2CCCN2C(=O)[C@@H](NC(=O)[C@@H](NC(=O)[C@H](CO)NC(=O)CN)C(C)C)CSSC[C@@H]2NC(=O)CNC(=O)[C@H](C)NC(=O)[C@H](CC(C)C)NC(=O)[C@@H]3CSSC[C@@H](C(=O)NCC(=O)N[C@@H](CO)C(=O)O)NC(=O)[C@H](Cc4ccccc4)NC(=O)CNC(=O)[C@H](CC(N)=O)NC(=O)[C@@H]4CCCN4C(=O)CNC(=O)[C@H](CSSC[C@H](NC(=O)[C@H](CCCCN)NC(=O)[C@H](CCCCN)NC(=O)[C@H](CC(C)C)NC1=O)C(=O)N[C@@H](CCCNC(=N)N)C(=O)N[C@@H](CCCNC(=N)N)C(=O)N[C@@H](CC(=O)O)C(=O)N[C@@H](CO)C(=O)N[C@@H](CC(=O)O)C(=O)N3)NC(=O)[C@H](C(C)C)NC2=O [MCoEeTI] (H-GSVCPKILKKCRRDSDCLAGCVCGPNGFCGS-OH; disulfide 4-21, 11-23, 17-29; N-terminus and C-terminus assumed)
Ki [1]: 0.2 µM | inhibition of bovine trypsin (in words) [2]: strong inhibitory activity

CC[C@H](C)[C@@H]1NC(=O)[C@H](CCCCN)NC(=O)[C@@H]2CCCN2C(=O)[C@@H](NC(=O)[C@@H](NC(=O)CN)C(C)C)CSSC[C@@H]2NC(=O)CNC(=O)[C@H](C)NC(=O)[C@H](CC(C)C)NC(=O)[C@@H]3CSSC[C@@H](C(=O)NCC(=O)N[C@@H](CO)C(=O)O)NC(=O)[C@H](Cc4ccccc4)NC(=O)CNC(=O)[C@H](CC(N)=O)NC(=O)[C@@H]4CCCN4C(=O)CNC(=O)[C@H](CSSC[C@H](NC(=O)[C@H](CCCCN)NC(=O)[C@H](CCCCN)NC(=O)[C@H](CC(C)C)NC1=O)C(=O)N[C@@H](CCCNC(=N)N)C(=O)N[C@@H](CCCNC(=N)N)C(=O)N[C@@H](CC(=O)O)C(=O)N[C@@H](CO)C(=O)N[C@@H](CC(=O)O)C(=O)N3)NC(=O)[C@H](C(C)C)NC2=O [SE-MG-0] (H-GVCPKILKKCRRDSDCLAGCVCGPNGFCGS-OH; disulfide 3-20, 10-22, 16-28; N-terminus and C-terminus assumed)
Ki [3]: ~0.6 µM | Ki [4]: > 1 µM | Ki [5]: > 1 µM | Ki [6]: > 1 µM | Ki [1]: 0.1 µM | Ki [7]: > 1 µM | Ki [8]: > 1 µM | Ki [9]: 0.07 µM | Ki [10]: > 1 µM | Ki [11]: > 1 µM | Ki [12]: > 1 µM | Ki [13]: 4 µM | Ki [14]: 0.07 µM | Ki [15]: 0.0003 µM | Ki [16]: > 1 µM

EETI-II [reference compound]
inhibition of bovine trypsin (in words) [2]: strong inhibitory activity

LDTI: leech derived tryptase Inhibitor, a 46 residue Kazal-type protein (KKVCACPKILKPVCGSDGRTYANSCIARCNGVSIKSEGSCPTGILN; UniProt P80424 1-46, looked up)
Ki ([17]; 2 of the 4 catalytic sites of the tetrameric tryptase): 0.0014 µM | Ki ([17]; one of the remaining two sites): 0.56 µM | Ki ([17]; the other of the remaining two sites): 10 µM

MCoEeTI-3R-3: Barnase′-[…] (SEQ ID NO:4) (SSSMGVCPRILRRCRRDSDCLAGCVCGPNGFCGS; not fully specified)
Ki ([1]; read-out: Kiapp β3-Tryptase): 0.03 µM | Ki [18]: 0.0002 µM

MCoEeTI-ARD-2: Barnase′-[…] (SEQ ID NO:39) (SSSMGVCPKILKACARDSDCLAGCVCGPNGFCGS; not fully specified)
Ki [18]: 0.0002 µM

MCoEeTI-KKV-1: Ba′-[…] (SEQ ID NO:5) (SSSMGKKVGVCPKILKKCRRDSDCLAGCVCGPNGFCGS; not fully specified)
Ki ([1]; read-out: Kiapp β3-Tryptase): 0.02 µM | Ki [18]: 0.0002 µM

MCoEeTI-LKA-7: Bar′-[…] (SEQ ID NO:40) (SSSMGVCPKILKACRRDSDCLAGCVCGPNGFCGS; not fully specified)
Ki [18]: 0.0002 µM

MCoEeTI-QRT-7: Barnase′-[…] (SEQ ID NO:38) (SSSMGVCPRNRQRCRRDSDCLAGCVCTNNKFCGS; not fully specified)
Ki [18]: 0.001 µM

MCoEeTI-T-1: Barnase′-[…] (SEQ ID NO:6) (SSSMGVCPKILKKCRRDSDCLAGCVCTNNKFCGS; not fully specified)
Ki ([1]; read-out: Kiapp β3-Tryptase): 0.15 µM | Ki [18]: 0.0001 µM

SE-BMG-0: Barnase′-[…] (SEQ ID NO:3) (SSSMGVCPKILKKCRRDSDCLAGCVCGPNGFCGS; not fully specified)
Ki ([1]; read-out: Kiapp β3-Tryptase): 0.1 µM | Ki [18]: 0.0002 µM
